Laboratory results as given in patent US20240293558A1, “KRAS INHIBITOR CONJUGATES” (Erasca, Inc., priority 2021, published 2024).

Legend:
KRAS (WT) = target: T1, KRAS (WT) (Homo sapiens, UniProt P01116); test: In-vitro RAS-RAF binding assay (RRB), HTRF/FRET; assay type: biochemical; settings: Table 2, average of multiple runs of each compound; read-out: Inhibition of RAS-RAF Binding (in-vitro) KRAS (WT) IC50
T1 construct: Biotinylated KRAS protein amino acids 1-169 (produced at Erasca); made in house
T1 sequence (P01116 1-169 isoform P01116-2): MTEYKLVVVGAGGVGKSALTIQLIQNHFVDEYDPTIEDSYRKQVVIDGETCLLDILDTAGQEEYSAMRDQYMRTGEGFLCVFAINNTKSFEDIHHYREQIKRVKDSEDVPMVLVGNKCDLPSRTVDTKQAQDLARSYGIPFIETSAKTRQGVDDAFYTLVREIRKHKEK
Procedure, shortened: (§1)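 Biotinylated KRAS 1-169 (streptavidin-terbium donor, 30 nM) and GST-cRAF RBD (anti-GST d2 acceptor, 30 nM) in HEPES pH 7.5, NaCl, MgCl2, DTT buffer. After compound incubation, SOS1 catalytic domain plus GTPgS drive 60 min nucleotide exchange. HTRF FRET read at equilibrium, in duplicate.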

[1] = target: T2, KRas G12D fused to HiBiT peptide (Homo sapiens, UniProt P01116, G12D); test: ASPC-1 HiBit assay to determine G12D degradation; assay type: cell-based; settings: AsPC-1 HiBiT cells, 24-hour incubation; read-out: ASPC-1 HiBit DC50 (C)
T2 construct: endogenous in cells; host or cells: AsPC-1 HiBiT knock-in single clone (Cas9 RNP + ssODN)
T2 sequence (P01116 1-188 isoform P01116-2 G12D): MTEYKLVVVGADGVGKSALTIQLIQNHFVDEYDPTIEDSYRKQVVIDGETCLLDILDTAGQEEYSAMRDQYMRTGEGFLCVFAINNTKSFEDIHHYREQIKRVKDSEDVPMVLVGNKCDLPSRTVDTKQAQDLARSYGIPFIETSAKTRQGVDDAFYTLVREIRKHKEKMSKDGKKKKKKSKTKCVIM
Procedure: Compounds presented herein induce degradation of the KRas G12D (KRasG12D) upon treatment of engineered cancer cell line.
The degradation of the KRasG12D in cellular environment was measured using engineered homozygous KRasG12D AsPC-1 cell line in which KRas G12D was fused to luminescent HiBiT peptide at the N-terminal. The small (1.3 kDa) HiBiT peptide complements with high affinity to a larger (18 kDa) subunit evolved from NanoLuc (termed LgBiT). The resulting complex (i.e., reconstituted luciferase enzyme) generates bright luminescence that translates to high sensitivity (1 amol), broad dynamic range (four orders of magnitude), and rapid kinetics for real time quantitation.
To generate HiBit KRasG12D knock-in cell line, sgRNA (SEQ. ID NO: 1) and ssODN (SEQ. ID NO: 2) were designed and synthesized at GenScript.
RNP complex was generated by mixing of 100 pmol of Cas9 protein to PCR tubes containing 300 pmol sgRNA incubating the resultant complex at room temperature for 20 min. […] ssODN was added to RNP complex slowly and RNP-ssODN complex was incubated at room temperature for 10 min. RNP-ssODN complex was mixed with […] of AsPC-1 cells (1×10^6 cells total) and electroporated using Nucleofactor (Program CM-150). Cells were then incubated at ambient temperature for 5 min and transferred to a six-well plate containing 2 ml growth medium.
To select pools with the highest luminescence signal, 10^4 cells of parental AsPC-1 and transfected pools were plated in solid white 384-well tissue culture plates. 24 hours after seeding, HiBiT was detected using the Nano-Glo HiBiT Lytic Detection System (Promega) following manufacturer's instructions. Briefly, […] of Nano-Glo HiBiT Lytic Detection Reagent was added directly to the cells and mixed by inversion before recording luminescence on an Envision (Perkin-Elmer) with 0.5 s integration time.
Single clones were isolated from stable pool by limited dilution method and presence of HiBiT knock-in was verified by TA cloning and subsequent sequencing. Additionally, western blotting analysis was conducted to confirm selection of single clones with high luminescence signal.
For DC50S measurements, AsPC-1 HiBiT single clone cells were grown in RPMI 1640 medium (Invitrogen 22400-089) supplemented with 10% fetal bovine serum. Cells were seeded in 384-well tissue culture plates at a density of 7,000 cells/well and allowed to attach for 24 hours.
Test compounds were distributed directly into assay plate with the adjustment for DMSO concentration using Tecan HP D300e. For most of the experiments, the final concentration of compounds starts from 10 μM, 3-fold dilution dose response and 10 doses. […] DMSO final concentration is 1%. Each concentration of exemplary compound was tested as singleton. The negative control wells were cells with DMSO only, and the positive control wells were cells with […] inhibitor.
Following 24-hour incubation with the compounds plate and Nano-Glo® HiBiT Lytic reagents were equilibrated to room temperature. 20 μL of HiBiT Lytic reagent were added to each well. The assay plate was incubated on digital microplate shaker (350 rpm) for 20 min followed by centrifugation at 500 g for 1 min. Luminescence was recorded using Envision (Perkin-Elmer) using aperture 384-L1 with 0.1 s integration time.
HiBiT signal are used to calculate the % degradation at given compound concentration using the following formula:
% Degradation=(1−(Sample HiBiT signal−Ave Min signal)/(Ave Max signal−Ave Min signal))*100%
For DC50 calculation, the data with the hook effect were removed first and DC50S was reported using a 4-parameter fit of dose response curve using GraphPad in those cases where maximum % degradation was >50% and Minimal % degradation was <50%. The decrease in DC50 reflects that the exemplary compound led to a higher level of degradation of KRasG12D than another exemplary compound at specific timepoint of treatment of cancer cell line. […]

KRAS G12D = KRAS G12D (Homo sapiens, UniProt P01116, G12D); test: In-vitro RAS-RAF binding assay (RRB), HTRF/FRET; assay type: biochemical; design: Biotinylated KRAS protein amino acids 1-169 (produced at Erasca); made in house; settings: Table 2, average of multiple runs of each compound; read-out: Inhibition of RAS-RAF Binding (in-vitro) KRAS (G12D) IC50
KRAS G12D, sequence (P01116 1-169 isoform P01116-2 G12D): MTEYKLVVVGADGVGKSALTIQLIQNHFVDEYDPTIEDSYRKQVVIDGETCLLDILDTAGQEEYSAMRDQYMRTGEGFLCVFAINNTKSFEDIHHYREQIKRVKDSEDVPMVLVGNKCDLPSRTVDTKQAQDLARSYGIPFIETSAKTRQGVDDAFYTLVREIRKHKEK
Procedure, shortened: as §1

IC50 (KRAS (WT))	DC50 [1]	IC50 (KRAS G12D)	SMILES
30 nM	135 nM	8.6 nM	C[C@H](NC(=O)[C@@H]1C[C@@H](O)CN1C(=O)[C@@H](NC(=O)CCOCCCN1CCC[C@H]1COc1nc(N2CC3CCC(C2)N3)c2cc(Cl)c(-c3ccc(F)c4sc(N)c(C#N)c34)c(F)c2n1)C(C)(C)C)c1ccc(-c2c(F)cc(F)cc2F)cc1 (single isomer, unassigned) [Example 97]
67 nM	38 nM	9.2 nM	C[C@H](NC(=O)[C@@H]1C[C@@H](O)CN1C(=O)[C@@H](NC(=O)CCOCCCN1CCC[C@H]1COc1nc(N2CC3CCC(C2)N3)c2cc(C(F)(F)F)c(-c3ccc(F)c4sc(N)c(C#N)c34)c(F)c2n1)C(C)(C)C)c1ccc(-c2cccc(F)c2F)cc1 [Example 94, (2S,4R)-1-((2S)-2-(3-(3-((2S)-2-((((7S)-7-(2-amino-3-cyano-7-fluorobenzo [b]thiophen-4-yl)-4-(3,8-diazabicyclo[3.2.1]octan-3-yl)-8-fluoro-6-(trifluoromethyl)quinazolin-2-yl)oxy)methyl)pyrrolidin-1-yl)propoxy)propanamido)-3,3-dimethylbutanoyl)-N—((S)-1-(2′,3′-difluoro-[1,1′-biphenyl]-4-yl)ethyl)-4-hydroxypyrrolidine-2-carboxamide]
52 nM	49 nM	8.9 nM	C[C@H](NC(=O)[C@@H]1C[C@@H](O)CN1C(=O)[C@@H](NC(=O)CCOCCCN1CCC[C@H]1COc1nc(N2CC3CCC(C2)N3)c2cc(C(F)(F)F)c(-c3ccc(F)c4sc(N)c(C#N)c34)c(F)c2n1)C(C)(C)C)c1ccc(-c2c(F)cc(F)cc2F)cc1 [Example 92, (2S,4R)-1-((2S)-2-(3-(3-((2S)-2-((((7S)-7-(2-amino-3-cyano-7-fluorobenzo[b]thiophen-4-yl)-4-(3,8-diazabicyclo[3.2.1]octan-3-yl)-8-fluoro-6-(trifluoromethyl)quinazolin-2-yl)oxy)methyl)pyrrolidin-1-yl)propoxy)propanamido)-3,3-dimethylbutanoyl)-4-hydroxy-N—((S)-1-(2′,4′,6′-trifluoro-[1,1′-biphenyl]-4-yl)ethyl)pyrrolidine-2-carboxamide]
63.7 nM	–	13.9 nM	Cc1ncsc1-c1ccc([C@H](C)NC(=O)[C@@H]2C[C@@H](O)CN2C(=O)[C@@H](NC(=O)CCOCCCN2CCC[C@H]2COc2nc(N3CC4CCC(C3)N4)c3cc(C(F)(F)F)c(-c4ccc(F)c5sc(N)c(C#N)c45)cc3n2)C(C)(C)C)cc1 [Example 80, (2S,4R)-1-((2S)-2-(3-(3-((2S)-2-(((7-(2-amino-3-cyano-7-fluorobenzo[b]thiophen-4-yl)-4-(3,8-diazabicyclo[3.2.1]octan-3-yl)-6-(trifluoromethyl)quinazolin-2-yl)oxy)methyl)pyrrolidin-1-yl)propoxy)propanamido)-3,3-dimethylbutanoyl)-4-hydroxy-N-((S)-1-(4-(4-methylthiazol-5-yl)phenyl)ethyl)pyrrolidine-2-carboxamide]

Second part, the compound before the results:

SMILES	IC50 (KRAS (WT))	DC50 [1]	IC50 (KRAS G12D)
C#Cc1c(F)ccc2cc(O)cc(-c3ncc4c(N5CC6CCC(C5)N6)nc(OC[C@@H]5CCCN5CCCOCCC(=O)N[C@H](C(=O)N5C[C@H](O)C[C@H]5C(=O)N[C@@H](C)c5ccc(-c6c(F)cc(F)cc6F)cc5)C(C)(C)C)nc4c3F)c12 [Example 49, (2S,4R)-1-((2S)-2-(3-(3-((2S)-2-(((4-(3,8-diazabicyclo[3.2.1]octan-3-yl)-7-(8-ethynyl-7-fluoro-3-hydroxynaphthalen-1-yl)-8-fluoropyrido[4,3-d]pyrimidin-2-yl)oxy)methyl)pyrrolidin-1-yl)propoxy)propanamido)-3,3-dimethylbutanoyl)-4-hydroxy-N-((S)-1-(2′,4′,6′-trifluoro-[1,1′-biphenyl]-4-yl)ethyl)pyrrolidine-2-carboxamide]	24.9 nM	324 nM	7.43 nM
CC(C)[C@@H](C(=O)N1C[C@H](O)C[C@H]1C(=O)N[C@@H](C)c1ccc(-c2c(F)cc(F)cc2F)cc1)c1cc(OCC2(C)CCN(CCOc3nc(N4CC5CCC(C4)N5)c4cc(C(F)(F)F)c(-c5ccc(F)c6sc(N)c(C#N)c56)c(F)c4n3)CC2)no1 [Example 76, (2S,4R)-1-((2R)-2-(3-((1-(2-((7-(2-amino-3-cyano-7-fluorobenzo[b]thiophen-4-yl)-4-(3,8-diazabicyclo[3.2.1]octan-3-yl)-8-fluoro-6-(trifluoromethyl)quinazolin-2-yl)oxy)ethyl)-4-methylpiperidin-4-yl)methoxy)isoxazol-5-yl)-3-methylbutanoyl)-4-hydroxy-N-((S)-1-(2′,4′,6′-trifluoro-[1,1′-biphenyl]-4-yl)ethyl)pyrrolidine-2-carboxamide]	1900 nM	259 nM	21.9 nM
C#Cc1c(F)ccc2cc(O)cc(-c3ncc4c(N5CC6CCC(C5)N6)nc(OC[C@@H]5CCCN5CCCOCCC(=O)N[C@H](C(=O)N5C[C@H](O)C[C@H]5C(=O)N[C@@H](C)c5ccc(-c6cccc(F)c6F)cc5)C(C)(C)C)nc4c3F)c12 [Example 51, (2S,4R)-1-((2S)-2-(3-(3-((2S)-2-(((4-(3,8-diazabicyclo[3.2.1]octan-3-yl)-7-(8-ethynyl-7-fluoro-3-hydroxynaphthalen-1-yl)-8-fluoropyrido[4,3-d]pyrimidin-2-yl)oxy)methyl)pyrrolidin-1-yl)propoxy)propanamido)-3,3-dimethylbutanoyl)-N-((S)-1-(2′,3′-difluoro-[1,1′-biphenyl]-4-yl)ethyl)-4-hydroxypyrrolidine-2-carboxamide]	95.7 nM	–	9.09 nM
C#Cc1c(F)ccc2cc(O)cc(-c3ncc4c(N5CC6CCC(C5)N6)nc(OC[C@@H]5CCCN5CCCOCCC(=O)N[C@H](C(=O)N5C[C@H](O)C[C@H]5C(=O)N[C@@H](C)c5ccc(-c6c(F)cncc6F)cc5)C(C)(C)C)nc4c3F)c12 [Example 27, (2S,4R)-1-((2S)-2-(3-(3-((2S)-2-(((4-(3,8-diazabicyclo[3.2.1]octan-3-yl)-7-(8-ethynyl-7-fluoro-3-hydroxynaphthalen-1-yl)-8-fluoropyrido[4,3-d]pyrimidin-2-yl)oxy)methyl)pyrrolidin-1-yl)propoxy)propanamido)-3,3-dimethylbutanoyl)-N—((S)-1-(4-(3,5-difluoropyridin-4-yl)phenyl)ethyl)-4-hydroxypyrrolidine-2-carboxamide]	37.9 nM	–	10.8 nM
